This passage reports Ki results from ChEMBL document CHEMBL1143327, “Carbonic anhydrase inhibitors: inhibition studies of a coral secretory isoform with inorganic anions” (Bioorg Med Chem Lett, 2009).

In the assay the target is Carbonic anhydrase 4 (Homo sapiens, UniProt P22748).
Carbonic anhydrase 4, sequence (P22748 whole entry): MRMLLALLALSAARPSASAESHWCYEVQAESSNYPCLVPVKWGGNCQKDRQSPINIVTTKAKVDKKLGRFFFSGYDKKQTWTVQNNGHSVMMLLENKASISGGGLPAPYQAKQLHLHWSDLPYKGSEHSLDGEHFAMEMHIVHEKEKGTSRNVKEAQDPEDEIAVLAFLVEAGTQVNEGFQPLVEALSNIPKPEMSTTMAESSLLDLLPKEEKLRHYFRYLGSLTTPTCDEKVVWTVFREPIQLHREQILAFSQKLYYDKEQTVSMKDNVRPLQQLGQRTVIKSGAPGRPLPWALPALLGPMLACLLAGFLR

Take `OB(O)c1ccccc1` [PHENYLBORONIC ACID]: the Ki (commonly the equilibrium dissociation constant of an inhibitor or competing ligand from its target) is 820 µM. On to `NS(=O)(=O)O` [SULFAMATE], for which the affinity, expressed as Ki, was 90 µM.
